Data published in EP0786470A1, “PEPTIDE COMPOUND” (SEIKAGAKU KOGYO KABUSHIKI KAISHA, priority 1993, dated 1997).
Where two headings read alike, the source gives them in different places. Where a SMILES comes first, the peptide text is derived from it. [ ]: non-standard residue; d: D form. The star is where a group is joined. Piv = CC(C)(C)C(=O)*; GABA = NCCCC(=O)O

Tests used:
[1] = tested on: Wistar rats; details: for inhibition of the total number of spontaneous behavior observed within 2 hours after administration of methamphetamine: rat, in vivo; for number of spontaneous behavior: tonsillar nucleus administration, 10 µmol/ml at 2.7 µl/min for 2 minutes, after 30 minutes of methamphetamine 1.0 mg/kg i.p., control about 1,250 counts
Protocol: (§1) Wistar rats (250 to 300 g) were anesthetized with pentobarbital (50 mg/kg, i.p.) and their parietal regions were shaved off and the head was respectively fixed on a rat brain fixing apparatus. After incising the scalp, a hole of 1 to 1.2 mm was made in the cranial bones using an electric drill, and a stainless steel guide cannula of 1 to 1.2 mm in diameter and 23 mm in length was inserted into the hole and fixed to the cranial bones with dental cement. As the insertion position of the guide cannula, co-ordinates of tonsillar nucleus (A: -1.3 mm, L: 3.4 mm and V: 8.6 mm from bregma) were selected with reference to the brain illustrations of Paxions and Watson. Rats were reared for 1 week after the operation and then used in the test.
(§2) Drug-free physiological saline containing 13% ethanol (vehicle) was used as a control in the same manner.

[2] = tested on: male Wistar rats; assay: Inhibition of (±) Bay K8644-induced spontaneous behavior and rearing, drug administered to caudate nucleus putamen (Test Example 3); assay type: in vivo, rat; details: caudate nucleus putamen administration; for number of spontaneous behavior: induced by (±) Bay K8644 (18.5 µmol/ml), in comparison with the control group (Fig. 5); for inhibition action on number of spontaneous behavior / number of rearing: induced by (±) Bay K8644; for inhibition action on number of spontaneous behavior: compared with PLG (Fig. 5); for number of rearing: compared with PLG (Fig. 6)
Source text: At the same time, the number of rearing was counted. The term rearing as used herein means an action to stand upright solely with hind legs, which is counted by the naked eye.
The number of spontaneous behavior is shown in Fig. 5, and the number of rearing in Fig. 6, both induced by (±) Bay K8644.

[3] = tested on: Wistar rats; details: for number of spontaneous behavior: caudate nucleus putamen administration
Protocol: as §1, §2

[4] = after 30 minutes of methamphetamine 1.0 mg/kg i.p.

| Structure (SMILES) | inhibition of the total number of spontaneous behavior observed within 2 hours after administration of methamphetamine [1] | number of spontaneous behavior [1] | number of spontaneous behavior [2] | inhibition action on number of spontaneous behavior [2] | number of rearing [2] | number of spontaneous behavior ([3]; after 75 minutes of methamphetamine 1.0 mg/kg i.p.) | site selectivity ([3]; caudate nucleus putamen versus tonsillar nucleus administration) | number of spontaneous behavior ([3]; 10 µmol/ml at 2.7 µl/min for 2 minutes, after 15 minutes of methamphetamine 1.0 mg/kg i.p.) | number of spontaneous behavior [3, 4] |
| --- | --- | --- | --- | --- | --- | --- | --- | --- | --- |
| CC(C)C[C@H](NC(=O)[C@@H](CO)NC(=O)C(C)(C)C)C(=O)NCCCC(=O)O [PDSLG, Piv-D-Ser-Leu-GABA] (Piv-[dS]-Leu-[GABA]-OH) | about 25% | about 820 counts | decreased | stronger than that of PLG | definitely strong inhibition effect in comparison with PLG | about 300 counts | stronger action on caudate nucleus putamen | – | – |
| CC(C)C[C@H](NC(=O)C(C)(C)C)C(=O)NCCCC(=O)O [PLG, Piv-Leu-GABA, reference compound] | – | about 750 counts | decreased | – | – | – | – | about 650 counts | about 600 counts |
| CC(C)C[C@H](NC(=O)[C@H](CO)NC(=O)C(C)(C)C)C(=O)NCCCC(=O)O [PSLG, Piv-L-Ser-Leu-GABA] (Piv-Ser-Leu-[GABA]-OH) | about 25% | about 900 counts | decreased | stronger than that of PLG | definitely strong inhibition effect in comparison with PLG | – | – | – | about 600 counts |
